Measured values taken from patent publication US11345681B1, “Inhibitors of fibroblast growth factor receptor kinases” (Kinnate Biopharma Inc., priority 2020, dated 2022).

Target: Wild type FGFR2 (Homo sapiens (Human), UniProt P21802)
Test: FGFR2 kinase assay (fluorescence-based microfluidic mobility shift assay)
Format: biochemical
Conditions: wild type FGFR2 0.06 nM, 100 μM ATP, 80 minutes at room temperature; class symbols

Chain of Wild type FGFR2 (P21802 22-821): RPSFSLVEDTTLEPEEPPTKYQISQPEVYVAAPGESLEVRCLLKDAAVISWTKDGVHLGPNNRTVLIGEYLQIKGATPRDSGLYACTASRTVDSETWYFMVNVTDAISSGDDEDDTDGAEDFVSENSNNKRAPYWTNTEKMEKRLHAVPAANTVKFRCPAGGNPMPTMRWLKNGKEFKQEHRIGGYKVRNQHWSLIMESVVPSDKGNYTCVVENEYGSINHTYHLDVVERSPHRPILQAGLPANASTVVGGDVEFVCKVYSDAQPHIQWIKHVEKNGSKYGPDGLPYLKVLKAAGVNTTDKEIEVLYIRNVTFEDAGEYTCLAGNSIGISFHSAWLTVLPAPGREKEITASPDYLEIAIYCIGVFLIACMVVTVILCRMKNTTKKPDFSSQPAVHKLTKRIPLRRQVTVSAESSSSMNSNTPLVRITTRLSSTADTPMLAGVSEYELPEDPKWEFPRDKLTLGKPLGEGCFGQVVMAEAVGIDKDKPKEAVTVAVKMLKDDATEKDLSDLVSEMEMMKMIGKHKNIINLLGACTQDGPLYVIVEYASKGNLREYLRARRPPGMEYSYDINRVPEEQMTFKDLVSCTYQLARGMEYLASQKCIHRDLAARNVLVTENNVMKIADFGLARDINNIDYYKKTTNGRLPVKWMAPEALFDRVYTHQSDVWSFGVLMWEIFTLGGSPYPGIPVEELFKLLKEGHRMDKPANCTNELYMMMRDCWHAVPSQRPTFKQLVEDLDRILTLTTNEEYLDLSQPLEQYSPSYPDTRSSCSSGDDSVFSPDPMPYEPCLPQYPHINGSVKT

`C=CC(=O)N1C[C@@H](n2nc(C#Cc3cc4ncn([C@@H]5CC5(F)F)c4cc3Cl)c(C(N)=O)c2NC)C[C@@H]1COC` (single isomer, unassigned) [Example 279] and `C=CC(=O)N1C[C@@H](n2nc(C#Cc3cc4ncn([C@H]5CC5(F)F)c4cc3Cl)c(C(N)=O)c2NC)C[C@@H]1COC` (single isomer, unassigned) [Example 280] cannot be ordered by IC50: no more than 100 nM for the first, no more than 100 nM for the second.

`C=CC(=O)N1C[C@@H](n2nc(C#Cc3cc4c(cc3Cl)ncn4[C@@H]3CC3(F)F)c(C(N)=O)c2NC)C[C@@H]1COC` (single isomer, unassigned) [Example 288] and `C=CC(=O)N1C[C@@H](n2nc(C#Cc3cc4ncn(CC)c4cc3F)c(C(N)=O)c2NC)C[C@@H]1COC` [Example 32, 1-((3S,5R)-1-acryloyl-5-(methoxymethyl)pyrrolidin-3-yl)-3-((1-ethyl-6-fluoro-1H-benzo[d]imidazol-5-yl)ethynyl)-5-(methylamino)-1H-pyrazole-4-carboxamide] cannot be ordered by IC50: no more than 100 nM for the first, no more than 100 nM for the second.

`C=CC(=O)N1C[C@@H](n2nc(C#Cc3ccc4cnoc4c3)c(C(N)=O)c2NC)CC1COC` (stereo in doubt) [Example 26, 1-((3S,5S)-1-acryloyl-5-(methoxymethyl)pyrrolidin-3-yl)-3-(benzo[d]isoxazol-6-ylethynyl)-5-(methylamino)-1H-pyrazole-4-carboxamide] and `C=CC(=O)N1C[C@@H](n2nc(C#Cc3ccc4c(cnn4C)c3)c(C(N)=O)c2NC)C[C@@H]1COC` [Example 8] cannot be ordered by IC50: 100 to 1000 nM for the first, no more than 100 nM for the second.

`C=CC(=O)N1C[C@@H](n2nc(C#Cc3c(F)cc4c(ncn4CC(F)(F)F)c3F)c(C(N)=O)c2NC)CC1COC` (stereo in doubt) [Example 34, 1-((3S,5S)-1-acryloyl-5-(methoxymethyl)pyrrolidin-3-yl)-3-((4,6-difluoro-1-(2,2,2-trifluoroethyl)-1H-benzo[d]imidazol-5-yl)ethynyl)-5-(methylamino)-1H-pyrazole-4-carboxamide] and `C=CC(=O)N1C[C@@H](n2nc(C#Cc3c(F)cc4c(ncn4CC)c3F)c(C(N)=O)c2NC)C[C@@H]1COC` [Example 29, 1-((3S,5R)-1-acryloyl-5-(methoxymethyl)pyrrolidin-3-yl)-3-((1-ethyl-4,6-difluoro-1H-benzo[d]imidazol-5-yl)ethynyl)-5-(methylamino)-1H-pyrazole-4-carboxamide] cannot be ordered by IC50: no more than 100 nM for the first, no more than 100 nM for the second.

`C=CC(=O)N1C[C@@H](n2nc(C#Cc3c(F)cc4c(ncn4C4CC4)c3F)c(C(N)=O)c2NC)CC1C` (stereo in doubt) [Example 159, 3-[2-(1-Cyclopropyl-4,6-difluoro-1,3-benzodiazol-5-yl)ethynyl]-1-[(3S,5R)-5-methyl-1-(prop-2-enoyl)pyrrolidin-3-yl]-5-(methylamino)pyrazole-4-carboxamide] and `C=CC(=O)N1C[C@@H](n2nc(C#Cc3c(F)cc4c(ncn4C)c3F)c(C(N)=O)c2NC)C[C@@H]1COC` [Example 11] cannot be ordered by IC50: no more than 100 nM for the first, no more than 100 nM for the second.

`C#CC(=O)N1CC[C@H](n2nc(C#Cc3cc4ncn(C5CC5)c4cc3F)c(C(N)=O)c2NC)C1` (stereo in doubt) [Example 188, 3-[2-(1-Cyclopropyl-6-fluoro-1,3-benzodiazol-5-yl)ethynyl]-5 (methylamino)-1-[1-(prop-2-ynoyl)pyrrolidin-3-yl]pyrazole-4-carboxamide] and `C=CC(=O)N1CC[C@H](n2nc(C#Cc3ccc4nc(C)[nH]c4c3)c(C(N)=O)c2NC)C1` [Example 2, (S)-1-(1-acryloylpyrrolidin-3-yl)-3-((2-methyl-1H-benzo[d]imidazol-6-yl)ethynyl)-5-(methylamino)-1H-pyrazole-4-carboxamide] cannot be ordered by IC50: no more than 100 nM for the first, no more than 100 nM for the second.

`C=CC(=O)N1C[C@@H](n2nc(C#Cc3ccc4c(c3)nc(C)n4CC)c(C(N)=O)c2NC)C[C@@H]1COC` [Example 3, 3-[2-(1-ethyl-2-methyl-1,3-benzodiazol-5-yl)ethynyl]-1-[(3S,5R)-5-(methoxymethyl)-1-(prop-2-enoyl)pyrrolidin-3-yl]-5-(methylamino)pyrazole-4-carboxamide] and `C=CC(=O)N1C[C@@H](n2nc(C#Cc3ccc4c(c3)nc(C3CC3)n4CC)c(C(N)=O)c2NC)C[C@@H]1COC` [Example 25, 1-((3S,5R)-1-acryloyl-5-(methoxymethyl)pyrrolidin-3-yl)-3-((2-cyclopropyl-1-ethyl-1H-benzo[d]imidazol-5-yl)ethynyl)-5-(methylamino)-1H-pyrazole-4-carboxamide] cannot be ordered by IC50: no more than 100 nM for the first, no more than 100 nM for the second.

`C=CC(=O)N1C[C@@H](n2nc(C#Cc3ccc4nn(C)cc4c3)c(C(N)=O)c2NC)C[C@@H]1COC` [Example 9, 1-((3S,5R)-1-acryloyl-5-(methoxymethyl)pyrrolidin-3-yl)-3-((2-methyl-2H-indazol-5-yl)ethynyl)-5-(methylamino)-1H-pyrazole-4-carboxamide] and `C=CC(=O)N1C[C@@H](n2nc(C#Cc3ccc4nn(CC)cc4c3)c(C(N)=O)c2NC)C[C@@H]1COC` [Example 15, 1-((3S,5R)-1-acryloyl-5-(methoxymethyl)pyrrolidin-3-yl)-3-((2-ethyl-2H-indazol-5-yl)ethynyl)-5-(methylamino)-1H-pyrazole-4-carboxamide] cannot be ordered by IC50: 100 to 1000 nM for the first, no more than 100 nM for the second.

`C=CC(=O)N1C[C@@H](n2nc(C#Cc3ccc4c(c3)nc(C(F)(F)F)n4C)c(C(N)=O)c2NC)C[C@@H]1COC` [Example 10] and `C=CC(=O)N1C[C@@H](n2nc(C#Cc3ccc4c(c3)nc(C(F)(F)F)n4CC)c(C(N)=O)c2NC)C[C@@H]1COC` [Example 27, 1-((3S,5R)-1-acryloyl-5-(methoxymethyl)pyrrolidin-3-yl)-3-((1-ethyl-2-(trifluoromethyl)-1H-benzo[d]imidazol-5-yl)ethynyl)-5-(methylamino)-1H-pyrazole-4-carboxamide] cannot be ordered by IC50: no more than 100 nM for the first, no more than 100 nM for the second.

`C=CC(=O)N1C[C@@H](n2nc(C#Cc3ccc4c(cnn4CC)c3)c(C(N)=O)c2NC)C[C@@H]1COC` [Example 14] and `C=CC(=O)N1C[C@@H](n2nc(C#Cc3cnc4c(c3)nc(C)n4CC)c(C(N)=O)c2NC)C[C@@H]1COC` [Example 22, 1-((3S,5R)-1-acryloyl-5-(methoxymethyl)pyrrolidin-3-yl)-3-((3-ethyl-2-methyl-3H-imidazo[4,5-b]pyridin-6-yl)ethynyl)-5-(methylamino)-1H-pyrazole-4-carboxamide] cannot be ordered by IC50: no more than 100 nM for the first, no more than 100 nM for the second.

`C=CC(=O)N1C[C@@H](n2nc(C#Cc3c(F)cc4c(nc(C)n4CC)c3F)c(C(N)=O)c2NC)C[C@@H]1COC` [Example 16, 1-((3S,5R)-1-acryloyl-5-(methoxymethyl)pyrrolidin-3-yl)-3-((1-ethyl-4,6-difluoro-2-methyl-1H-benzo[d]imidazol-5-yl)ethynyl)-5-(methylamino)-1H-pyrazole-4-carboxamide] and `C=CC(=O)N1C[C@@H](n2nc(C#Cc3c(F)cc4c(nc(C)n4C)c3F)c(C(N)=O)c2NC)C[C@@H]1COC` [Example 18, 1-((3S,5R)-1-acryloyl-5-(methoxymethyl)pyrrolidin-3-yl)-3-((4,6-difluoro-1,2-dimethyl-1H-benzo[d]imidazol-5-yl)ethynyl)-5-(methylamino)-1H-pyrazole-4-carboxamide] cannot be ordered by IC50: no more than 100 nM for the first, no more than 100 nM for the second.

`C=CC(=O)N1C[C@@H](n2nc(C#Cc3c(F)cc4[nH]c(C)nc4c3F)c(C(N)=O)c2NC)C[C@@H]1COC` [Example 17] and `C=CC(=O)N1C[C@@H](n2nc(C#Cc3c(F)cc4c(cnn4C)c3F)c(C(N)=O)c2NC)C[C@@H]1COC` [Example 19, 1-((3S,5R)-1-acryloyl-5-(methoxymethyl)pyrrolidin-3-yl)-3-((4,6-difluoro-1-methyl-1H-indazo1-5-yl)ethynyl)-5-(methylamino)-1H-1-pyrazole-4-carboxamide] cannot be ordered by IC50: no more than 100 nM for the first, no more than 100 nM for the second.

`C=CC(=O)N1C[C@@H](n2nc(C#Cc3ccc4c(nc(C)n4C)c3F)c(C(N)=O)c2NC)C[C@@H]1COC` [Example 20, 1-((3S,5R)-1-acryloyl-5-(pethoxymethyl)pyrrolidin-3-yl)-3-((4-fluoro-1,2-dimethyl-1H-benzo[d]imidazol-5-yl)ethynyl)-5-(methylamino)-1H-pyrazole-4-carboxamide] and `C=CC(=O)N1C[C@@H](n2nc(C#Cc3ccc4c(nc(C)n4CC)c3F)c(C(N)=O)c2NC)C[C@@H]1COC` [Example 21, 1-((3S,5R)-1-acryloyl-5-(methoxymethyl)pyrrolidin-3-yl)-3-((1-ethyl-4-fluoro-2-methyl-1H-benzo[d]imidazol-5-yl)ethynyl)-5-(methylamino)-1H-pyrazole-4-carboxamide] cannot be ordered by IC50: no more than 100 nM for the first, no more than 100 nM for the second.

`C=CC(=O)N1C[C@@H](n2nc(C#Cc3cnc4c(c3)ncn4C)c(C(N)=O)c2NC)C[C@@H]1COC` [Example 23, 1-((3S,5R)-1-acryloyl-5-(methoxymethyl)pyrrolidin-3-yl)-3-((3-methyl-3H-imidazo[4,5-b]pyridin-6-yl)ethynyl)-5-(methylamino)-1H-pyrazole—4-carboxamide] and `C=CC(=O)N1C[C@@H](n2nc(C#Cc3cc4nc(C)n(C)c4cc3F)c(C(N)=O)c2NC)C[C@@H]1COC` [Example 28, 1-((3S,5R)-1-acryloyl-5-(methoxymethyl)pyrrolidin-3-yl)-3-((6-fluoro-1,2-dimethyl-1H-benzo[d]imidazol-5-yl)ethynyl)-5-(methylamino)-1H-pyrazole-4-carboxamide] cannot be ordered by IC50: no more than 100 nM for the first, no more than 100 nM for the second.

`C=CC(=O)N1C[C@@H](n2nc(C#Cc3cc4nc(C)n(CC)c4cc3C#N)c(C(N)=O)c2NC)C[C@@H]1COC` [Example 24, 1-((3S,5R)-1-acryloyl-5-(methoxymethyl)pyrrolidin-3-yl)-3-((6-cyano-1-ethyl-2-methyl-1H-benzo[d]imidazol-5-yl)ethynyl)-5-(methylamino)-1H-pyrazole-4-carboxamide] and `C=CC(=O)N1C[C@@H](n2nc(C#Cc3c(F)cc4c(ncn4C(F)F)c3F)c(C(N)=O)c2NC)C[C@@H]1COC` [Example 30, 1-((3S,5R)-1-acryloyl-5-(methoxymethyl)pyrrolidin-3-yl)-3-((1-(difluoromethyl)-4,6-difluoro-1H-benzo[d]imidazol-5-yl)ethynyl)-5-(methylamino)-1H-pyrazole-4-carboxamide] cannot be ordered by IC50: 100 to 1000 nM for the first, no more than 100 nM for the second.

Same assay, conditions: wild type FGFR2 0.06 nM, 100 μM ATP, 80 minutes at room temperature; given as numeric bound

For `C=CC(=O)N1C[C@@H](n2nc(C#Cc3cc4c(cc3Cl)ncn4[C@H]3CC3(F)F)c(C(N)=O)c2NC)C[C@@H]1COC` (single isomer, unassigned) [Example 289], the IC50 was greater than 500 nM.
